# Earlier results, collected in article PMC8452925, “Differential Modulation of the Voltage-Gated Na^+ Channel 1.6 by Peptides Derived From Fibroblast Growth Factor 14” (Frontiers in Molecular Biosciences, 2021).
# Tests used:
# [1] = system: FGF14^Y158A:Nav1.6 complex; conditions: 50 µM, LCA, ref Singh et al., 2020
# Procedure: In our previous study ([Singh et al., 2020]), we pharmacologically evaluated all three tetrapeptides at a single concentration of 50 µM using the LCA. […] For example, in the FGF14^V160A condition, all three peptides lost activity, whereas in the FGF14^Y158A condition, FLPK retaine ...
# FGF14:Nav1.6 complex = target: T1, FGF14:Nav1.6 complex (Homo sapiens, UniProt Q92915); conditions: ref Singh et al., 2020
# T1 construct: expressed in transfected cells
# T1 sequence (Q92915 1-252 isoform Q92915-2): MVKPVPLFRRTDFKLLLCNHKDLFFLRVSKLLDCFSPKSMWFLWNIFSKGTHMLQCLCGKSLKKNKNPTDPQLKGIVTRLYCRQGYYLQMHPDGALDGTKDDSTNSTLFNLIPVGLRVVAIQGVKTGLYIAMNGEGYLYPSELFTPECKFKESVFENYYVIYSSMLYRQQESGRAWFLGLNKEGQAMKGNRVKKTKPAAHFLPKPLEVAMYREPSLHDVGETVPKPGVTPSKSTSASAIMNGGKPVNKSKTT
# Description: (§1) To guide drug discovery efforts targeting the PPI interface between FGF14 and the CTD of Nav1.6, we previously developed and interrogated a homology model of the PPI interface to identify putative clusters of amino acids central to assembly of the complex ([Ali et al., 2014], [2016]). These investigations identified the Phe-Leu-Pro-Lys (FLPK) and Pro-Leu-Glu-Val (PLEV) motifs on the β12 sheet of FGF14, and the Glu-Tyr-Tyr-Val (EYYV) motif on the β8-β9 loop of FGF14, as being putatively essential for FGF14:Nav1.6 complex assembly ([Ali et al., 2014], [2016]). To investigate if short peptides de ...
# MSNs of the NAc = conditions: ref Singh et al., 2020
# Description: as §1
# [2] = system: human Nav1.6 with FGF14-GFP; conditions: ref Singh et al., 2020
# Description: as §1
substance,measurement,setting,value
"Phe-Leu-Pro-Lys [FLPK, tetrapeptide from the β12 sheet of FGF14, previously evaluated (Singh et al., 2020)]",Effect on complex assembly with FGF14^Y158A (in words),[1],retained its inhibitory effects on FGF14:Nav1.6 complex assembly
same,Effect on FGF14:Nav1.6 complex assembly (in words),FGF14:Nav1.6 complex,inhibited FGF14:Nav1.6 complex assembly
same,Effect on neuronal excitability (in words),MSNs of the NAc,affected neuronal excitability of MSNs of the NAc
same,Effect on FGF14-mediated regulation of Nav1.6 channel activity (in words),[2],reversed FGF14-mediated regulatory effects on Nav1.6 channel activity
